# Patent publication US9682978B2, “2,6,7 substituted purines as HDM2 inhibitors” (Merck Sharp & Dohme Corp., priority 2013, dated 2017)
# Target: T1, HDM2 (Homo sapiens, UniProt Q00987)
# T1 construct: Thioredoxin (N); made in house; host or cells: E. coli BL21(DE3)Rosetta (pET32a)
# Assay: HDM2 FRET assay (inhibition of p53 peptide binding to HDM2)
# Details: for IC50: truncated HDM2 residues 17 to 125, 0.5 nM HDM2, 3 nM FITC labeled 8-mer peptide, two hour incubation
# Excerpt: Methods: An HDM2 FRET assay was developed to assess the compounds' inhibitory activity towards binding of p53 protein. A truncated version of HDM2 with residues 17 to 125 (containing p53 binding surface, Science (1994) 265, 346-355), with N-terminal His and Thioredoxin tag was generated in pET32a expression vector and expressed in E. coli strain BL21(DE3)Rosetta. Protein was purified using Ni-affinity chromatography, followed by size exclusion chromatography using Superdex 75 26/60 column. To assess inhibition of p53 binding to HDM2, a FITC labeled 8-mer peptide (sequence: Ac-Phe-Arg-Dpr-Ac6c-(6-Br)Trp-Glu-Glu-Leu-NH2; Anal Biochem. 2004 Aug. 1; 331(1):138-46) with strong affinity towards p53 binding pocket of HDM2 was used. The HDM2 assay buffer contained 1× Phosphate Buffered Saline (Invitrogen, Cat#14190), 0.01% BSA (Jackson ImmunoResearch, Cat#001-000-162), 0.01% Tween-20. In the 1× assay buffer recombinant HDM2 protein, peptide and Lumi4-Tb Cryptate-conjugate mouse anti-6×HIS antibody (cisbio, Cat#Tb61HISTLB) were added and transferred to ProxiPlate PLUS (PerkinElmer, Cat#6008269), containing compounds so that final DMSO concentration is 0.1%. Final concentrations of reagents in the assay wells are 0.5 nM HDM2, 0.25 nM anti HIS (Tb label) antibody and 3 nM peptide. After two hour incubation at room temperature in a humidified chamber plates were read on EnVision plate reader with the following settings: excitation: UV, […], two emission filters: 520 nm and 495 nm respectively. Ratio of em520/em495 was used to calculate % inhibition and to obtain IC50 with 4-parameter logistic equation.
# IC50 DETERMINATIONS: Dose-response curves were plotted from the inhibition data, from 10 point serial dilutions of inhibitory compounds. Concentration of compound was plotted against em520/Cem495 ratio signal. To generate IC50 values, the dose-response curves were fitted to a standard sigmoidal curve and IC50 values were derived by nonlinear regression analysis. IC50 values in the above table are rounded to the nearest integer.
# T1 sequence (Q00987 17-125): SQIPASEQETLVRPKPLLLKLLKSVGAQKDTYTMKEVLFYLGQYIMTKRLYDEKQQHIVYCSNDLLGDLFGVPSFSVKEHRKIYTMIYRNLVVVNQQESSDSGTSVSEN
smiles,measurement,setting,value
"C[C@H]1CC[C@H](Cn2cnc3nc(-c4noc(=O)[nH]4)nc(-c4cc(Cl)ccn4)c32)CC1 [Example 2.3, 3-{6-(4-chloropyridin-2-yl)-7-[(trans-4-methylcyclohexyl)methyl]-7H-purin-2-yl}-1,2,4-oxadiazol-5(4H)-one]",IC50,Table 2,251 nM
"C[C@@H](Nc1nc(-c2nc(=O)n(C)[nH]2)nc2ncn(C[C@H]3CC[C@H](C)CC3)c12)C1CCC1 [Example 1.3, 5-(6-{[(1R)-1-cyclobutylethyl]amino}-7-[(trans-4-methylcyclohexyl)methyl]-7H-purin-2-yl)-2-methyl-1,2-dihydro-3H-1,2,4-triazol-3-one]",IC50,Table 1,71.1 nM
"C[C@H]1CC[C@H](Cn2cnc3nc(-c4noc(=O)[nH]4)nc(-c4ccnc(Cl)c4F)c32)CC1 [Example 2.2, 3-{6-(2-chloro-3-fluoropyridin-4-yl)-7-[(trans-4-methylcyclohexyl)methyl]-7H-purin-2-yl}-1,2,4-oxadiazol-5(4H)-one]",IC50,Table 2,134 nM
"COC(=O)c1cc(C)cc(-c2nc(-c3noc(=O)[nH]3)nc3ncn(C[C@H]4CC[C@H](C)CC4)c23)c1 [Example 2.19, methyl 3-methyl-5-{7-[(trans-4-methylcyclohexyl)methyl]-2-(5-oxo-4,5-dihydro-1,2,4-oxadiazol-3-yl)-7H-purin-6-yl}benzoate]",IC50,Table 2,579 nM
"C[C@H]1CC[C@H](Cn2cnc3nc(-c4noc(=O)[nH]4)nc(-c4cc(Cl)cc(C#N)c4)c32)CC1 [Example 2.4, 3-chloro-5-{7-[(trans-4-methylcyclohexyl)methyl]-2-(5-oxo-4,5-dihydro-1,2,4-oxadiazol-3-yl)-7H-purin-6-yl}benzonitrile]",IC50,Table 2,413 nM
"C[C@@H](Nc1nc(-c2n[nH]c(=O)n2C)nc2ncn(C[C@H]3CC[C@H](C)CC3)c12)C1CCC1 [Example 1.16, 5-(6-{[(1R)-1-cyclobutylethyl]amino}-7-[(trans-4-methylcyclohexyl)methyl]-7H-purin-2-yl)-4-methyl-2,4-dihydro-3H-1,2,4-triazol-3-one]",IC50,Table 1,241 nM
"C[C@@H](Nc1nc(-c2n[nH]c(=O)o2)nc2ncn(C[C@H]3CC[C@H](C)CC3)c12)C1CCC1 [Example 1.15, 5-(6-{[(1R)-1-cyclobutylethyl]amino}-7-[(trans-4-methylcyclohexyl)methyl]-7H-purin-2-yl)-1,3,4-oxadiazol-2(3H)-one]",IC50,Table 1,52.5 nM
"C[C@H]1CC[C@H](Cn2cnc3nc(-c4noc(=O)[nH]4)nc(-c4cncc(Cl)c4)c32)CC1 [Example 2.12, 3-{6-(5-chloropyridin-3-yl)-7-[(trans-4-methylcyclohexyl)methyl]-7H-purin-2-yl}-1,2,4-oxadiazol-5(4H)-one]",IC50,Table 2,86 nM
"C[C@@H]1CC[C@@H](Cn2cnc3nc(-c4noc(=O)[nH]4)nc(-c4cccc(Cl)c4)c32)CC1(F)F (single isomer, unassigned) [Example 3.16, 3-[6-(3-chlorophenyl)-7-{[(trans)-3,3-difluoro-4-methylcyclohexyl]methyl}-7H-purin-2-yl]-1,2,4-oxadiazol-5(4H)-one]",IC50,Table 3,848 nM
"C[C@@H]1CC[C@@H](Cn2cnc3nc(-c4noc(=O)[nH]4)nc(N[C@H](C)C4CCC4)c32)CC1(F)F (stereo in doubt) [Example 3.5, 3-(6-{[(1R)-1-cyclobutylethyl]amino}-7-{[(trans)-3,3-difluoro-4-methylcyclohexyl]methyl}-7H-purin-2-yl)-1,2,4-oxadiazol-5(4H)-one]",IC50,Table 3,198 nM
"CC1(C)CCCN(c2nc(-c3noc(=O)[nH]3)nc3ncn(C[C@H]4CC[C@H](C)CC4)c23)C1 [Example 1.12, 3-{6-(3,3-dimethylpiperidin-1-yl)-7-[(trans-4-methylcyclohexyl)methyl]-7H-purin-2-yl}-1,2,4-oxadiazol-5(4H)-one]",inhibition at 1 µM,"Table 1, printed in the FRET IC50 column, at 1000 nM compound",43%
"CCC1CCC(Cn2cnc3nc(-c4noc(=O)[nH]4)nc(N[C@H](C)C4CCC4)c32)C1 (mixture of isomers) [Example 3.10, 3-(6-(((R)-1-cyclobutylethyl)amino)-7-((3-ethylcyclopentyl)methyl)-7H-purin-2-yl)-1,2,4-oxadiazol-5(4H)-one]",IC50,Table 3,313 nM
"C[C@@H](Nc1nc(-c2noc(=O)[nH]2)nc2ncn(C[C@H]3CC[C@H](C(F)(F)F)CC3)c12)C1CCC1 [Example 3.1, 3-(6-{[(1R)-1-cyclobutylethyl]amino}-7-{[trans-4-(trifluoromethyl)cyclohexyl]methyl}-7H-purin-2-yl)-1,2,4-oxadiazol-5(4H)-one]",IC50,Table 3,116 nM
"C[C@@H](Nc1nc(C(=O)NS(=O)(=O)N(C)C)nc2ncn(C[C@H]3CC[C@H](C)CC3)c12)C1CCC1 [Example 1.4, 6-{[(1R)-1-cyclobutylethyl]amino}-N-(dimethylsulfamoyl)-7-[(trans-4-methylcyclohexyl)methyl]-7H-purine-2-carboxamide]",IC50,Table 1,733 nM
"CCC1CCC(Cn2cnc3nc(C(=O)O)nc(N[C@H](C)C4CCC4)c32)C1 (single isomer, unassigned) [Example 3.11]",IC50,Table 3,677 nM
"C[C@@H](Nc1nc(-c2noc(=O)[nH]2)nc2ncn(C[C@H]3CC[C@H](C)CC3)c12)C1CCC1 [Example 1.7, 3-(6-{[(1R)-1-cyclobutylethyl]amino}-7-[(trans-4-methylcyclohexyl)methyl]-7H-purin-2-yl)-1,2,4-oxadiazol-5(4H)-one]",IC50,Table 1,51.3 nM
"CC1CCC(Cn2cnc3nc(-c4noc(=O)[nH]4)nc(N[C@H](C)C4CCC4)c32)C1 (mixture of isomers) [Example 3.9, 3-(6-{[(1R)-1-cyclobutylethyl]amino}-7-[(3-methylcyclopentyl)methyl]-7H-purin-2-yl)-1,2,4-oxadiazol-5(4H)-one]",IC50,Table 3,1640 nM
"C[C@H]1CC[C@H](Cn2cnc3nc(-c4noc(=O)[nH]4)nc(N4CCCC(F)(F)C4)c32)CC1 [Example 1.6, 3-{6-(3,3-difluoropiperidin-1-yl)-7-[(trans-4-methylcyclohexyl)methyl]-7H-purin-2-yl}-1,2,4-oxadiazol-5(4H)-one]",IC50,Table 1,820 nM
"COCCOc1cc(Cl)cc(-c2nc(-c3noc(=O)[nH]3)nc3ncn(C[C@H]4CC[C@H](C)CC4)c23)c1 [Example 2.22, 3-{6-[3-chloro-5-(2-methoxyethoxyl)phenyl]-7-[(trans-4-methylcyclohexyl)methyl]-7H-purin-2-yl}-1,2,4-oxadiazol-5(4H)-one]",IC50,Table 2,68.5 nM
"COc1cc(Cl)cc(-c2nc(-c3noc(=O)[nH]3)nc3ncn(C[C@H]4CC[C@H](C)CC4)c23)c1 [Example 2.6, 3-{6-(3-chloro-5-methoxyphenyl)-7-[(trans-4-methylcyclohexyl)methyl]-7H-purin-2-yl}-1,2,4-oxadiazol-5(4H)-one]",IC50,Table 2,312 nM
"CNC(=O)c1cc(Cl)cc(-c2nc(-c3noc(=O)[nH]3)nc3ncn(C[C@H]4CC[C@H](C)CC4)c23)c1 [Example 2.10, 3-chloro-N-methyl-5-{7-[(trans-4-methylcyclohexyl)methyl]-2-(5-oxo-4,5-dihydro-1,2,4-oxadiazol-3-yl)-7H-purin-6-yl}benzamide]",IC50,Table 2,71.8 nM
"C[C@H]1CC[C@H](Cn2cnc3nc(C(=O)O)nc(-c4cncc(Cl)c4)c32)CC1 [Example 2.20, 6-(5-chloropyridin-3-yl)-7-[(trans-4-methylcyclohexyl)methyl]-7H-purine-2-carboxylic acid]",IC50,Table 2,213 nM
"C=C1CCC(Cn2cnc3nc(C(=O)O)nc(N[C@H](C)C4CCC4)c32)CC1 [Example 3.8, 6-{[(1R)-1-cyclobutylethyl]amino}-7-[(4-methylidenecyclohexyl)methyl]-7H-purine-2-carboxylic acid]",IC50,Table 3,677 nM
"C[C@H]1CC[C@H](Cn2cnc3nc(-c4noc(=O)[nH]4)nc(-c4cc(Cl)cc(N5CCCC5)c4)c32)CC1 [Example 2.18, 3-{6-(3-chloro-5-pyrrolidin-1-ylphenyl)-7-[(trans-4-methylcyclohexyl)methyl]-7H-purin-2-yl}-1,2,4-oxadiazol-5(4H)-one]",IC50,Table 2,331 nM
"C[C@H]1CC[C@H](Cn2cnc3nc(-c4noc(=O)[nH]4)nc(-c4cc(Cl)cc(C(F)(F)F)c4)c32)CC1 [Example 2.11, 3-{6-[3-chloro-5-(trifluoromethyl)phenyl]-7-[(trans-4-methylcyclohexyl)methyl]-7H-purin-2-yl}-1,2,4-oxadiazol-5(4H)-one]",IC50,Table 2,172 nM
"C[C@H]1CC[C@H](Cn2cnc3nc(-c4noc(=O)[nH]4)nc(-c4cc(O)cc(Cl)c4)c32)CC1 [Example 2.7, 3-{6-(3-chloro-5-hydroxyphenyl)-7-[(trans-4-methylcyclohexyl)methyl]-7H-purin-2-yl}-1,2,4-oxadiazol-5(4H)-one]",IC50,Table 2,111 nM
